Experimental data taken from ChEMBL document CHEMBL1821720, “Discovery and hit-to-lead optimization of novel allosteric glucokinase activators” (Bioorg Med Chem Lett, 2011).

What was measured:
[1] = biological target: T1, Hexokinase-4 (Homo sapiens) (UniProt P35557); test: Activation of human recombinant glucokinase expressed in Escherichia coli coexpressing G6PDH at 10 uM using 20 mM glucose measured as ratio of enzyme activation in compound treated to Ro-28-1675 by G6PDH coupled continuous spectrophotometric assay
T1 sequence (whole entry): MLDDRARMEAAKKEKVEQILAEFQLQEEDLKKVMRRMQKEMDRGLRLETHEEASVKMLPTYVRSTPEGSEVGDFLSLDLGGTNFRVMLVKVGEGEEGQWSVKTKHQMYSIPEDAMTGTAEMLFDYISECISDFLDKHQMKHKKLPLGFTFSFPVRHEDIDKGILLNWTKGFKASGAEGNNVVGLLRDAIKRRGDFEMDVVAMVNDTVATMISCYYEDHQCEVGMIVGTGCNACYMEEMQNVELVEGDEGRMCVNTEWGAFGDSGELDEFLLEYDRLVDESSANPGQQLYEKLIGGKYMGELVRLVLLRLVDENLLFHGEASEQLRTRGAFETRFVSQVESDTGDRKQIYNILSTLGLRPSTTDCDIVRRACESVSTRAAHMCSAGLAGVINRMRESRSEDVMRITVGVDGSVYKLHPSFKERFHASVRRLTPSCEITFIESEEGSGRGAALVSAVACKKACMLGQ

[2] = biological target: T1, Hexokinase-4 (Homo sapiens); test: Activation of human recombinant glucokinase expressed in Escherichia coli coexpressing G6PDH at 10 uM using 5 mM glucose by G6PDH coupled continuous spectrophotometric assay relative to Ro-28-1675
[3] = biological target: T1, Hexokinase-4 (Homo sapiens); test: Activation of human recombinant glucokinase expressed in Escherichia coli coexpressing G6PDH at 10 uM using 20 mM glucose by G6PDH coupled continuous spectrophotometric assay relative to Ro-28-1675
[4] = biological target: T1, Hexokinase-4 (Homo sapiens); test: Activation of human recombinant glucokinase expressed in Escherichia coli coexpressing G6PDH at 10 uM using 5 mM glucose measured as ratio of enzyme activation in treated to untreated control by G6PDH coupled continuous spectrophotometric assay
[5] = biological target: T1, Hexokinase-4 (Homo sapiens); test: Activation of human recombinant glucokinase expressed in Escherichia coli coexpressing G6PDH at 10 uM using 20 mM glucose measured as ratio of enzyme activation in treated to untreated control by G6PDH coupled continuous spectrophotometric assay
[6] = biological target: T1, Hexokinase-4 (Homo sapiens); test: Activation of human recombinant glucokinase expressed in Escherichia coli coexpressing G6PDH at 10 uM using 5 mM glucose measured as ratio of enzyme activation in compound treated to Ro-28-1675 by G6PDH coupled continuous spectrophotometric assay

SMILES | Ratio [1] | Activity [2] | Activity [3] | Ratio [4] | Ratio [5] | Ratio [6]
CC(=O)c1ccccc1-c1cc(C(=O)Nc2nc3c(s2)CCC3)c(C)s1 | 0.627 | 66% | 63% | 3.52 | 1.71 | 0.66
Cc1cc(C(=O)Nc2nc3c(s2)CCC3)c(C)o1 | 0.247 | 20% | 20% | 1.88 | 1.42 | 0.219
Cc1cc(C(=O)Nc2nc3c(s2)CCC3)c(C)s1 | 0.231 | 20% | 20% | 2.22 | 1.37 | 0.312
Cc1sc(-c2ccccc2C(N)=O)cc1C(=O)Nc1nc2c(s1)CCC2 | 0.713 | 69% |  | 3.34 | 1.8 | 0.714
CCc1sc(-c2ccccc2C(N)=O)cc1C(=O)Nc1nc2c(s1)CCC2 | 0.736 | 69% | 69% | 3.7 | 1.92 | 0.69
COCc1cc(C(=O)Nc2nc3c(s2)CCC3)c(C)o1 | 0.246 |  |  | 1.92 | 1.41 | 0.212
CCc1nc(NC(=O)c2cc(C)oc2C)sc1CC | -0.022 |  |  | 1.09 | 0.96 | 0.022
CCc1oc(-c2ccccc2S(C)(=O)=O)cc1C(=O)Nc1nc2c(s1)CCC2 | 0.343 |  |  | 2.92 | 1.39 | 0.586
Cc1oc(CO)cc1C(=O)Nc1nc2c(s1)CCC2 | 0.05 |  |  | 1.3 | 1.08 | 0.069
Cc1cc(C(=O)Nc2ccc(C(=O)O)cn2)c(C)o1 | 0.027 |  |  | 1.12 | 1.05 | 0.027
Cc1oc(-c2cccnc2)cc1C(=O)Nc1nc2c(s1)CCC2 | 0.053 |  |  | 1.09 | 1.08 | 0.021
CC(=O)c1cccc(-c2cc(C(=O)Nc3nc4c(s3)CCC4)c(C)o2)c1 | -0.039 |  |  | 1 | 0.93 | 0
O=C(Nc1nc2c(s1)CCCC2)c1ccncc1 | -0.033 |  |  | 1.01 | 0.93 | 0.002
Cc1noc(C)c1C(=O)Nc1nc2c(s1)CCCC2 | -0.025 |  |  | 1.01 | 0.96 | 0.004
CC(=O)NCc1cc(C(=O)Nc2nc3c(s2)CCC3)c(C)o1 | 0.081 |  |  | 1.4 | 1.11 | 0.105
